Results: patent publication EP1060182B1, “NOVEL PRODRUGS FOR PHOSPHORUS-CONTAINING COMPOUNDS” (Metabasis Therapeutics, Inc., priority 1998, dated 1999)
Entries after “also recorded” stand apart in the source; their conditions may differ.

Columns and labels:
[1] = in rodents; cited from earlier work
[2] = tested on: Rat liver microsomes; settings: linear over a 5 hour reaction period, equimolar products
Method: 1.1 was evaluated for microsome-catalyzed conversion to parent compound 2-{5-[9-(2-Phenylethyl)-8-adeninyl]} furanylphosphonic acid and phenol, an expected byproduct of the reaction.
Methods: Rat liver microsomes were prepared as described in Example I. Reaction conditions, sample processing, and HPLC analysis were as described in Example D. Phenol was identified by HPLC by its retention time and spectral characteristics relative to an authentic standard.

[3] = Stability in plasma (Example C); format: in vitro ADME, rat; settings: 37°C, 5-8 hours, reverse phase HPLC
Method: Methods: Compounds were incubated in plasma at 37°C, and aliqouts removed at appropriate time points over the course of 5-8 hours. The aliquots were extracted with 1.5 volumes of methanol and clarified by centrifugation. Supernatants were then evaporated to dryness and the residues reconstituted with 100 µL of isotonic saline and then analyzed by reverse phase HPLC.

[4] = tested on: glucose production in isolated rat hepatocytes; test: Inhibition of glucose production in rat hepatocytes (Example J); format: cell-based; settings: 1 hour, lactate 10 mM / pyruvate 1 mM
Method: Select prodrugs of FBPase inhibitors were tested for inhibition of glucose production in isolated rat hepatocytes.
After a 10 minute equilibration period, lactate and pyruvate were added to 10 mM and 1 mM concentrations, respectively. Addition of gluconeogenic substrates was immediately followed by that of appropriate concentrations of test compound. After 1 hour, an aliquot (0.25 ml) was removed, transferred to an Eppendorf tube and centrifuged. The supernatant (50 µl) was then assayed for glucose content using a Glucose Oxidase kit (Sigma Chemical Co.) as per the manufacturer's instructions.

[5] = tested on: microsomal fraction of human liver; test: Activation by human liver microsomes (Example E); format: in vitro ADME; settings: 250 µM prodrug, 37°C, NADPH-generating system
Method: 7.1, 1.3, and 30.1 were tested for conversion to their respective parent compounds by the microsomal fraction of human liver.

[6] = tested on: microsomal fraction of rat liver; test: Activation by rat liver microsomes (Example D); format: in vitro ADME; settings: 100 µM 7.1, 37°C; in the presence, but not in the absence of, NADP+; rate linearly dependent on microsomal protein
Method: The pellet was resuspended in homogenization buffer and recentrifuged.
Reactions were carried out at 37°C.
Reactions are monitored spectrophotometrically at 340 nm.

[7] = tested on: isolated rat hepatocytes; test: Activation to parent compound in isolated rat hepatocytes (Example I); format: cell-based; settings: 100 µM prodrug, peak within 15 minutes of addition
Excerpt: An ODS column was used for analysis. […] Detection was at 310 nm.

[8] = tested on: isolated rat hepatocytes; test: Active drug metabolites formed after prodrug activation in isolated rat hepatocytes (Example K); settings: for Product concentration nmoles/g cells (PMEApp): time point 4h
Method: Methods: Hepatocytes were prepared and incubated as described in Example I. 28.4 and 30.1 and their respective parent compounds, PMEA and ara-AMP, were dissolved in DMSO or methanol to yield 10 mM stock solutions, and then diluted into the cell suspension to yield a final concentration of 100 µM. At appropriate time points over the course of 2-4 hours, aliquots of the cell suspension were removed and spun through a silicon/mineral oil layer into 10% perchloric acid. The cell extracts in the acid layers were neutralized by the addition of 0.3 volumes of 3M KOH/3M KHCO3, and the extract was then centrifuged, filtered (0.2 micron filter) and loaded onto an anion exchange HPLC column equilibrated with 70% A (10 mM ammonium phosphate pH 3.5, 6% ETOH) and 30% B (1 M ammonium phosphate pH 3.5, 6% ETOH). Ara-ATP and PMEApp were eluted with a gradient to 80% B. Detection was at 254 nm.

[9] = Hepatic PMEA-diphosphate and plasma PMEA after intravenous dosing (Example P); format: in vivo, rat; settings: 10 mg/kg PMEA equivalents i.v.
[10] = tested on: recombinant CYP3A4; test: Activation by recombinant CYP3A4 (Example G); format: in vitro ADME; settings: 28.4 at 100 µM, 37°C, NADPH dependent, linear for 30 minutes
Method: Activation of 30.1 and 28.4 was evaluated in reactions containing microsomes from baculovirus-infected insect cells co-expressing recombinant CYP3A4 and cytochrome p450 reductase (Panvera Corp., Madison, WI).
Methods: Reaction mixture composition was similar to that described in Example E. Reactions were terminated by addition of methanol to a final concentration of 60%, and products typically analyzed by HPLC with use of a YMC reverse phase C8 column (250 x 4.6 mm). […] The effluent was monitored at 254 nm.

[11] = intravenous administration to human patients; cited from earlier work
[12] = Liver ara-ATP and plasma/urine ara-hypoxanthine after intravenous dosing (Example O); format: in vivo, rat
Method: The temporal profile of ara-hypoxanthine and ara-ATP generation following intravenous administration of 30.1 and free ara-AMP was compared in the rat.
Method: 30.1 and ara-AMP (Sigma) were administered to normal, fasted rats intravenously (in saline) via tail vein catheters. At appropriate time points following drug a administration, animals were lightly anesthetized with halothane. The peritoneal cavity was then opened and a blood sample was obtained from the abdominal vena cava and the liver freeze-clamped and excised.
The blood samples were heparinized and plasma was prepared. Plasma samples (100 µL) were mixed with 4 N perchloric acid (40 µL), vortexed, and then clarified by centrifugation. The supernatants were analyzed for ara-hypoxanthine by HPLC with use of a Beckman Ultrasphere ODS column (4.6 x 150 mm). The column was eluted with 100 mM acetic acid at a flow rate of 1.0 mL/min. The eluent was monitored by UV absorbance at 254 nm.
Livers were immediately homogenized in 3 volumes of 10% perchloric acid (w/w), and the extracts clarified by centrifugation at 2500 x g (5 minutes). The resulting supernatants were removed and neutralized with 0.3 volumes of 3M KOH/ 3M KHCO3. The neutralized liver extracts were then spun in an Eppendorf microfuge at 10,000 rpm (20 minutes, 4°C). The supernatants were analyzed for ara-ATP content by reverse phase HPLC (HP1050) using a Whatman Partisphere SA column (4.6 x 125 mm). A gradient from 0.3M ammonium phosphate buffer pH 3.5 to 0.8M ammonium phosphate pH 3.5 was run (1 ml/minute flow rate).
Renal excretion of araH following i.v. administration of 30.1 or ara-AMP was determined as described in Example Q.

[13] = i.v., over 2.5 minutes; cited from earlier work

CC(C)(C)C(=O)OCOP(=O)(OCOC(=O)C(C)(C)C)C(CCCc1cccc(Oc2ccccc2)c1)S(=O)(=O)O (centres unmarked) [BMS 188494]
oral bioavailability [1]: < 2%

Nc1ncnc2c1nc(-c1ccc(P3(=O)OC4CC(O)CC(C4)O3)o1)n2CCc1ccccc1 (centres unmarked) [Compound 1.1, 6-Amino-8-(5'-hydroxyl-1',3'-cyclohexyl)phosphonofuranyl-9-phenethyl purine]
rate of generation of 2-{5-[9-(2-Phenylethyl)-8-adeninyl]}furanylphosphonic acid and phenol [2]: 15 pmoles /mg microsomal protein/minute
metabolism / degradation in fresh rat plasma [3]: not degraded; also recorded: no evidence of metabolism
IC50 [4]: 77 µM

CC(C)(C)Cn1c(-c2ccc(P3(=O)OC4CC(O)CC(C4)O3)o2)nc2c(N)ncnc21 (centres unmarked) [Compound 1.2, 6-Amino-8-(5'-hydroxyl-1',3'-cyclohexyl)phosphonofuranyl-9-neopentyl purine]
metabolism / degradation in fresh rat plasma [3]: not degraded

CC(C)Cn1c(-c2ccc(P3(=O)OCC(CO)CO3)o2)nc2ccc(Cl)cc21 (centres unmarked) [Compound 7.1, 6-Chloro-1-isobutyl-2-{5-[2'-(hydroxymethyl)-propan-1',3'-yl]phosphono-2-furanyl}benzimidazole]
rate of formation of parent compound [5]: 0.85 nmoles/mg microsomal protein/minute
conversion to parent compound [6]: converted to parent compound
inhibition at 100 µM ([4]; Rattus norvegicus, Hepatocyte, read-out: % inhibition @ 100 µM, 100 µM): 65%
IC50 ([4]; Rattus norvegicus, Hepatocyte): 48 µM
peak intrahepatocyte levels of 6-Chloro-1-isobutyl-2-(2-Phosphono-5-furanyl)benzimidazole [7]: approximately 700 nmoles/g cells

CC(=O)OCC1COP(=O)(c2ccc(-c3nc4c(N)ncnc4n3CC(C)(C)C)o2)OC1 (centres unmarked) [Compound 7.5, 6-Amino-9-neopentyl-8-{5-[2'-(acetoxymethyl)-propan-1',3'-yl]phosphono-2-furanyl}purine]
IC50 [4]: 13 µM

Nc1ncnc2c1ncn2CCOCP1(=O)OCCC(c2ccncc2)O1 (centres unmarked) [Compound 28.4, 9-[2-(1-(4-Pyridyl)-1,3-propylphosphonomethoxy)ethyl]adenine]
Product concentration nmoles/g cells (PMEApp) ([8]; Dose 100 µM): 169 nmoles/g cells
PMEA-diphosphate in liver [9]: readily detectable levels
Plasma PMEA levels relative to bisPOM-PMEA [9]: greater than 10 fold lower
rate of formation of PMEA [10]: 3.1 ± 0.1 nmoles/ min/ nmole CYP3A4

Nc1ncnc2c1ncn2CCOCP(=O)(O)O [PMEA, 9-(2-phosphonylmethoxyethyl) adenine, reference compound]
Product concentration nmoles/g cells (PMEApp) ([8]; Dose 250 µM): 120 nmoles/g cells

Nc1ncnc2c1ncn2[C@@H]1O[C@H](COP(=O)(O)O)[C@@H](O)[C@@H]1O [araAMP, reference compound]
ara-AMP in plasma [11]: not detected in plasma
Product concentration nmoles/g cells (ara-ATP) ([8]; Dose 100 µM, time point 2h): 212±0.6 nmoles/g cells
persistence of ara-hypoxanthine in plasma ([12]; ara-AMP i.v. at equivalent doses): 8 h
ara-hypoxanthine (araH) in plasma ([12]; i.v., 30.1 at 10 and 3 mg/kg, ara-AMP at equivalent doses): µmolar levels
plasma half-life of free ara-AMP relative to 30.1 ([12]; judged by inability to detect the compound in plasma): considerably shorter
drop of plasma ara-AMP levels [13]: greater than 90%

CC(C)(C)C(=O)OCOP(=O)(COCCn1cnc2c(N)ncnc21)OCOC(=O)C(C)(C)C [bisPOM-PMEA, reference compound]
PMEA-diphosphate in liver [9]: readily detectable levels
